# Results as given in patent US11077109B2, “Compounds having antibacterial activity and methods of use” (The Trustees of Princeton University, priority 2017, dated 2021).
# Where a name gives a salt, the structure may show the parent alone.
# Legend:
# [1] = test system: E. coli MC4100 imp4213 (imp) strain; experiment: MIC of lead compounds on the imp strain, microdilution method in 96-well plates; format: cell-based
# Text: With the aim of finding antibiotics with novel MOAs, an unbiased whole-cell screening approach was applied. To include antibiotics that target either gram-negative and gram-positive bacteria, compounds were screened that inhibited growth of the E. coli MC4100 imp4213 (imp) strain, which has a compromised OM that makes it permeable to antibiotics that would otherwise not penetrate the gram-negative lipolysaccheride (LPS). […] unique compounds spanning 5 libraries were screened, with 32,343 compounds represented once, 923 duplicates, 114 triplicates, 12 quadruplicates and 2 compounds represented five times, all at the concentration of 50 uM in DMSO.
# From the 186 unique hits, 32 lead compounds were selected that either had not been identified as antibiotics or had unknown or ambiguous MOAs for further investigation. To understand the potency of these compounds, their minimum inhibitory concentration (MIC) was measured on the imp strain using the microdilution method in 96-well plates.
# [2] = test system: methicillin resistant S. aureus (NARSA NRS384); experiment: MIC against panel of clinically important pathogens: methicillin resistant S. aureus; format: cell-based; settings: Staphylococcus aureus, read-out: MIC (inhibiting concentration), methicillin resistant S. aureus
# Description: (§1) In an effort to understand how effective these 8, possibly novel, antibiotics might be in treating infections, their MICs against a panel of 22 clinically important pathogens shown in Table II were measured. In addition, the MICs of 3 other compounds of interest, rivaroxaban, AZT, and triflupromazine, were measured which were associated with specific drug classes. Of particular interest, ONO-RS-82 inhibited C. difficile and N. gonorrhoeae with at concentrations of 2 μg/ml and 0.25 μg/ml respectively.
# [3] = test system: Enterococcus faecium ATCC BAA-2320; experiment: MIC against panel of clinically important pathogens: E. faecium; format: cell-based; settings: ATCCBAA2320, read-out: MIC (inhibiting concentration), E. faecium
# Description: as §1
# [4] = test system: Neisseria gonorrhoeae CCUG57598; experiment: MIC against panel of clinically important pathogens: N. gonorrhoeae; format: cell-based; settings: read-out: MIC (inhibiting concentration), N. gonorrhoeae
# Description: as §1
# [5] = test system: Clostridium difficile ATCC BAA-1875; experiment: MIC against panel of clinically important pathogens: C. difficile; format: cell-based; settings: Clostridioides difficile, ATCCBAA1875, read-out: MIC (inhibiting concentration), C. difficile
# Description: as §1
# NCM 3722 E. coli cells = experiment: MIC on NCM 3722 E. coli; format: cell-based; settings: NCM 3722 cells, Gutnick Minimal Media
# [6] = test system: folate metabolites in NCM 3722 E. coli cells; experiment: Metabolomics and mass spectrometry of folate metabolites; format: cell-based
# [7] = test system: Cpx envelope stress response (cpxP); experiment: cpxP expression (Cpx envelope stress response activation); format: cell-based, E. coli MC4100 wild type; settings: drug at one to one-half the MIC (AGAs and chloramphenicol 5 μg/ml, triflupromazine 50 μg/ml)
# Text: Thus, that the three AGAs fell into a distinct neighborhood not similar to the other ribosome-targeting antibiotics was unsurprising.
# [8] = test system: B. subtilis essential gene knockdown library (folC, folA); format: cell-based
# Text: The classical method of identifying the molecular target of an antibiotic is by selecting for antibiotic resistant mutants. However, SCH resistant mutants were not easily identified. A potential reason for this may be that SCH has multiple targets. To probe this hypothesis, a B. subtilis essential gene knockdown library was screened to select for strains that were sensitized to SCH (FIG. 12A). This library consists of ˜300 individual strains where the expression of each essential gene is repressed 3-fold by CRISPR interference (CRISPRi). This library was pinned onto agar plates containing a sub-MIC dose of SCH and the relative fitness of each gene was measured (FIG. 12A). […]
# ΔthyA lptD4213 cells = experiment: Susceptibility of ΔthyA cells; format: cell-based, E. coli; settings: supplemented with exogenous Thymine
# Description: To test this hypothesis, the membrane potential and membrane permeability of lptD4213 cells were measured using the fluorescent dyes, DIOC2(3) and TO-PRO-3, and flow cytometry. DIOC2(3) is a cationic dye that accumulates in the cytoplasm of cells with an active membrane potential and shifts its fluorescence from red to green. The dye also stains the membrane of the cells in green and as a result the ratio of the red to green signals can provide a morphology and size independent measure of membrane potential (FIG. 14B). TO-PRO-3 is a nucleic acid stain that only stains cells with compromised membranes (FIG. 14B).
# [9] = E. coli MC4100 imp4213 (imp) strain, microdilution
compound,measurement,setting,value
CCCCCCCCCCCCCCC[C@H](O)[C@H](N)CO (racemic) [DL-erythro-dihydrosphingosine],MIC,[1]; [9],12.5 µM
"CC[n+]1c(C=CC=C2N(C)c3ccccc3C2(C)C)sc2ccccc21 [AC-93253 iodide, 2-[3-(1,3-dihydro-1,3,3-trimethyl-2H-indol-2-ylidene)-1-propenyl]-3-ethyl-benzothiazolium iodide]",MIC,[1]; Escherichia coli,6.25 µM
CCCCC(CC)CNC(=N)NC(=N)NCCCCCCNC(=N)NC(=N)NCC(CC)CCCC (stereo not shown) [Alexidine hydrochloride],MIC,[1]; Escherichia coli,12.5 µM
CC(=O)OC[C@H]1O[C@@H]([S-])[C@H](OC(C)=O)[C@@H](OC(C)=O)[C@@H]1OC(C)=O.CCP(CC)CC.[Au+] [Auranofin],MIC,[1]; [9],6.25 µM
O=[N+]([O-])C(Br)(CO)CO [Bronopol],MIC,[1]; Escherichia coli,25 µM
"Clc1ccc(C(c2ccc(Cl)cc2)n2cc[n+](CC(OCc3ccc(Cl)cc3Cl)c3ccc(Cl)cc3Cl)c2)cc1.[Cl-] (stereo not shown) [Calmidazolium chloride, 1-[bis(4-Chlorophenyl)methyl]-3-[2-(2,4-dichlorophenyl)-2-(2,4-dichlorobenzyloxy)ethyl]-1H-imidazolium chloride]",MIC,[2],< 1 µg/mL
same,MIC,[1]; Escherichia coli,3.12 µM
same,MIC,[3],< 1 µg/mL
same,MIC,[4],< 1 µg/mL
Cc1nc2ccccc2n1Cc1ccc(Cl)cc1 [Chlormidazole],MIC,[1]; Escherichia coli,25 µM
Oc1ccc(Cl)cc1Cc1cc(Cl)ccc1O [Dichlorophen],MIC,[1]; Escherichia coli,12.5 µM
O=c1[nH]c(=O)n([C@H]2C[C@H](O)[C@@H](CO)O2)cc1F [Floxuridine],MIC,[1]; Escherichia coli,6.25 µM
"O=C1Nc2ccc(I)cc2C1=Cc1cc(Br)c(O)c(Br)c1 [GW5074, 3-(3,5-dibromo-4-hydroxybenzyliden)-5-iodo-1,3-dihydroindol-2-one]",MIC,[1]; Escherichia coli,6.25 µM
"O=S(=O)(NCCNCC=Cc1ccc(Br)cc1)c1cccc2cnccc12 [H 89 dihydrochloride, N-[2-(p-Bromocinnamylamino)ethyl]-5-isoquinolinesulfonamide dihydrochloride]",MIC,[1]; Escherichia coli,12.5 µM
CC[n+]1c(-c2ccccc2)c2cc(N)ccc2c2ccc(N)cc21 [Homidium bromide],MIC,[1]; Escherichia coli,25 µM
CC(=O)[C@]1(O)Cc2c(O)c3c(c(O)c2[C@@H](O[C@H]2C[C@H](N)[C@H](O)[C@H](C)O2)C1)C(=O)c1ccccc1C3=O [Idarubicin],MIC,[1]; Escherichia coli,25 µM
"CCCCCc1ccc(C=CC(=O)Nc2cc(Cl)ccc2C(=O)O)cc1 [ONO-RS-082, 2-(p-amylcinnamoyl)amino-4-chlorobenzoic acid]",MIC,[5],2 µg/mL
same,MIC,[1]; Escherichia coli,3.12 µM
same,MIC,[4],0.25 µg/mL
"O=C(NC[C@H]1CN(c2ccc(N3CCOCC3=O)cc2)C(=O)O1)c1ccc(Cl)s1 [Rivaroxaban, (S)-5-Chloro-N-((2-oxo-3-(4-(3-oxomorpholino)phenyl)oxazolidin-5-yl)methyl)thiophene-2-carboxamide]",MIC,[1]; Escherichia coli,0.05 µM
"CC(C)c1ccc(Cn2ccc3c4c(N)nc(NC5CC5)nc4ccc32)cc1 [SCH 79797, N3-Cyclopropyl-7-[[4-(1-methylethyl)phenyl]methyl]-7H-pyrrolo[3,2-F]quinazoline-1,3-diamine dihydrochloride]",MIC (1× MIC),NCM 3722 E. coli cells,31.25 µM
same,dihydrofolate (DHF) levels versus normal DHF levels,[6]; 1× MIC for 15 minutes,approximately 10 fold
same,MIC,[1]; Escherichia coli,25 µM
COc1cccc(C2(O)CCCCC2CN(C)C)c1 (stereo not shown) [Tramadol hydrochloride],MIC,[1]; Escherichia coli,6.25 µM
"CN(C)CCCN1c2ccccc2Sc2ccc(C(F)(F)F)cc21 [Triflupromazine, N,N-dimethyl-3-[2-(trifluoromethyl)phenothiazin-10-yl]propan-1-amine]",cpxP expression,[7],induced cpxP expression
same,MIC,[1]; Escherichia coli,25 µM
COc1cc(Cc2cnc(N)nc2N)cc(OC)c1OC [Trimethoprim],metabolic response characteristic of FolA inhibition,[6]; NCM 3722 cells,also observed
same,sensitivity of dihydrofolate reductase (folA) knockdown,[8]; sub-MIC / sub-lethal dose,sensitized
same,sensitivity of dihydrofolate synthetase (folC) knockdown,"[8]; sub-MIC / sub-lethal dose on agar, confirmed in liquid",sensitized
same,susceptibility of ΔthyA lptD4213 cells,ΔthyA lptD4213 cells,resistant to high levels
CN[C@@H]1[C@@H](O[C@H]2O[C@H](CO)[C@@H](N)[C@H](O)[C@H]2O)OC2C[C@@H](N)[C@@H](O[C@H]3[C@H](O)[C@@H](O)[C@H](N)C[C@@H]3N)OC2[C@@H]1O (stereo partly shown) [apramycin],cpxP expression,[7],induced cpxP expression
O=C(N[C@H](CO)[C@H](O)c1ccc([N+](=O)[O-])cc1)C(Cl)Cl [chloramphenicol],cpxP expression,[7],did not
Bleomycin,MIC,[1]; [9],0.1 µM
gentamicin,cpxP expression,[7],induced cpxP expression
